In patent publication US20240299383A1, “IMMUNOMODULATOR COMPOSITION COMPRISING AZVUDINE” (HENAN GENUINE BIOTECH CO., LTD., priority 2023, published 2024):

What was measured:
CT26 cells [1] = assay: Anti-tumor effect of azvudine in CT26 tumor-bearing mice with normal immune function; assay type: in vivo, BALB/c mouse; details: mice with normal immunity (BALB/c), o.p., QD×2 W
CT26 cells [2] = assay: Anti-tumor effect of azvudine in CT-26 tumor-bearing mice with severe immunodeficiency; assay type: in vivo; details: mice with severe immunodeficiency (B-NDG), o.p., QD×2 W
[3] = system: immune cells in CT26 tumor; assay: Infiltration of immune cells in tumor by flow cytometry, CT26 tumor model; assay type: in vivo, BALB/c mice
Description: Tumor tissue was washed once with PBS, and removed of fat. The tumor tissue was quickly cut into small pieces. The chopped tumor tissue was transferred to a tube C containing 5 mL of digestive enzyme mixed solution. The tube C was put in a tissue processor, the tissue fragments were ensured to be submerged in the digestive enzyme, and the program m_imptumor_01_01 was performed. The sample was put in a water bath shaker at 37° C. for 30 min of digestion. After the digestion was completed, the program m_imptumor_01_01 was performed again, and then an appropriate amount of PBS containing 2% fetal bovine serum was added to terminate the digestion. The obtained mixture was filtered with a […] cell mesh to remove residual tissue, and washed with PBS. An appropriate volume of PBS was added according to the amount of cell precipitate to resuspend cells. Then the cells were gently blown evenly, and counted with a hemocytometer. An appropriate amount of cells were taken out and stained with antibodies.
The cells were resuspended with PBS to a concentration of 1×10^6 cells/100 μL. The cell suspension was added to a 96-well V-bottom plate at 100 μL per well. The plate was centrifuged at 450 g at 4° C. for 5 min, and the supernatant solution was discarded. The cells were resuspended with 100 μL of prepared Zombie NIR Live/Dead solution, then cultured at 4° C. in the dark for 30 min, and then washed twice with PBS. Then the cells in each well were resuspended with 50 μL of staining buffer containing Fc receptor inhibitor (1 μL of Fc receptor inhibitor+49 μL of staining buffer), and cultured at 4° C. in the dark for 5 min. Then the cells in each well were resuspended with 50 μL of Brilliant staining buffer containing Pacific Orange CD8, BV605 MHCII, BV650 CD25, BV750 CD45, BV785 Ly6C, AF488 CD11c, AF532 CD11b, PE-DZL594 CD49b, APC Ly6G, APC-Cy5.5 CD4, APC-Cy7 CD13, BV42 CD69 (or an isotype control antibody thereof), and cultured at 4° C. in the dark for 30 min. After staining was completed, the cells were washed twice with 200 μL of staining buffer.
The cells in each well were resuspended with 100 μL of Fixation/Permeabilization, and cultured at 4° C. in the dark for 30 min. After permeabilization was completed, the cells were washed twice with 200 μL of Permeabilization buffer. The cells were resuspended with 100 μL of Permeabilization buffer containing Fc receptor inhibitor, and cultured at 4° C. in the dark for 5 min. Then the cells were directly added with intracellular antibodies PE-Cy7 FoxP3 and PE Ki67 (or an isotype control antibody thereof), and cultured at 4° C. in the dark for 30 min. After staining was completed, the cells were washed twice with 200 μL of Permeabilization buffer, and resuspended with 200 μL of staining buffer. The flow cytometry detection was completed within 24 h.
The flow cytometry data was analyzed using FlowJo, SPSS and Graphpad Prism softwares, specifically including the following: • 1) The proportion of CD45+ cells in living cells of tumor tissue; • 2) The ratio of T, CD4+T, CD8+T, Treg, Myeloid, DC, NK, PMN-MDSC and M-MDSC in CD45+ cells; • 3) The ratio of CD8+T to Treg and the ratio of CD4+Teff to Treg; • 4) The CD69 positive rate and median fluorescence intensity (MFI) in T, CD4+T, and CD8+T cells; • 5) The Ki67 positive rate and median fluorescence intensity (MFI) in T, CD4+T, CD8+ and T cells; • 6) The number of T, CD4+T, CD8+T, Treg, Myeloid, DC, NK, PMN-MDSC, M-MDSC, and white blood cells per 100 mg of tumor tissue;
In this experiment, the CT26 tumor model was established on BALB/c mice, and the mice were treated with azvudine at different doses (0.25 mg/kg, 1 mg/kg). Tumor samples were collected. Then the proportion of each immune cell subset and the activation and proliferation of T, CD4+T and CD8+T were detected by flow cytometry.

[4] = system: cytokines (GM-CSF, MCP-1, IFNγ, IFNβ, TNFa, IL2, IL4, IL8, IL10); assay: Release level of cytokines in serum and tumor tissue by MSD method, CT26 tumor model; assay type: in vivo, BALB/c mice; details: vs Vehicle
Description: CT26 cells were cultured in RPMI 1640 medium containing 10% fetal bovine serum at 37° C. in a 5% CO2 incubator. The cells were passaged routinely once a week. When the cell saturation reached 80%-90% and the cell number achieved the requirement, the cells were collected, counted and inoculated.
Animals were BALB/c female mice, 8 weeks old and weighing 18.5-22.9 g, which were provided by Shanghai Lingchang Biotechnology Co., Ltd.
0.1 mL (0.3×10^6) of CT26 cells were subcutaneously inoculated into each mouse. When the average tumor volume reached 101 mm^3, the mice were grouped and administered.
• 1) Quick-frozen tissue samples were taken out from the −80° C. refrigerator. • 2) On dry ice, part of the tumor tissue (about 50-100 mg) were cut out, and put into a 2 mL centrifuge tube with steel beads. Then the tube was added with 350 μL of cell lysis solution RIPA (in which 1% protease inhibitor and phosphatase inhibitor had been freshly added). • 3) The tissue was crushed with Tissue grinder at the highest frequency for 5 min. • 4) The tissue lysate was put on ice for 30 min. • 5) The tissue lysate was centrifuged at 12,000 rpm at 4° C. for 10 min. The supernatant was collected and put into a new 1.5 mL centrifuge tube.
• 1) The protein extract was diluted 50 times (2 μL of protein extract+98 μL of RIPA cell lysis buffer). • 2) Standard product and diluted samples were added at 10 μL/well in a 96-well transparent plate. • 3) Preparation of working solution: Reagent A and reagent B were mixed at a ratio of 50:1. 200 μL of the mixture was added to each well. • 4) The 96-well transparent plate was incubated at 37° C. for 30 min. • 5) The OD value at 562 nm was detected by a microplate reader, and then the tumor protein was quantified according to the OD result. • 6) The total protein concentration of the tumor samples was uniformly 2 mg/mL. • 7) The protein was quantified with BCA quantification kit. • 8) According to the quantitation results, the sample protein concentration was uniformly diluted to 2 μg/μL with RIPA lysis solution. • 9) MSD experiment was performed or the diluted samples were stored in a −80° C. refrigerator.
• 1) Preparation of standard product: 250 μL of Diluent 43 diluent was added to the standard product. The mixture was mixed well, and left to stand at room temperature for 15-30 min, and serially diluted by 4 times using Diluent 43 to obtain standard products Nos. 1-7. Diluent 43 was standard product No. 8. • 2) Sample dilution: The samples were diluted with Diluent 43. • 3) Antibody dilution: 100× antibody stock solution was diluted to 1×. • 4) Buffer preparation: 5× buffer was diluted to 1× with deionized water.
• 1) 200 μL of each biotin antibody was added to 300 μL of the designated linker. The resulting mixture was stirred by vortex and incubated at room temperature for 30 min. • 2) 200 μL of stop solution was added. The resulting mixture was stirred by vortex and incubated at room temperature for 30 min. • 3) 600 μL of each U-PLEX Linker-Coupled antibody solution (10×) was mixed into a tube and mixed by vortex. • 4) When the number of binding antibodies was less than 10, the solution was supplemented to 6 ml with stop solution. • 5) 50 μL of multiplex coating solution was added to each well. The plate was sealed with an adhesive board, and shaken at room temperature for 1 h. • 6) The wells were washed 3 times with 1× MSD wash Buffer at 150 μL/well. • 7) Standard product and detection antibody solutions were prepared. • 8) 25 μL of Diluent 43 was added to each well. • 9) 25 μL of prepared standard product, tissue sample or serum sample was added to each well. The plate was sealed with an adhesive board, and incubated at room temperature for 1 h. • 10) The wells were washed 3 times with 1× MSD wash Buffer at 150 μL/well. • 11) 50 μL of detection antibody solution was added to each well. […]

[5] = system: murine colorectal cancer CT-26 cell line; assay: Azvudine in combination with PD-1 antibody in murine colorectal cancer CT-26 homograft tumor model; assay type: in vivo, BALB/c female mouse; details: for T/C (%) / TGI(%): tumor volume on the 17th day; for T/Cweight (%): 17th day
Description: Further, the anti-tumor effect of azvudine in combination with PD-1 antibody on BALB/c female mouse subcutaneously xenografted with murine colorectal cancer CT-26 cell line animal model was studied.

B-cell lymphoma A20 = assay: Azvudine in combination with PD-1 antibody in B-cell lymphoma A20 tumor-bearing mouse model; assay type: in vivo
Description: The effect of azvudine in combination with PD-1 antibody on the B-cell lymphoma A20 tumor-bearing mouse model was further studied.

[6] = 0.25 mg/kg and 1 mg/kg PO QD × 5D, dose-dependent
[7] = after administration, 0.25 and 1 mg/kg, vs control group
[8] = high-dose group (1 mg/kg PO QD × 5D)
[9] = tumor tissue, 0.25 mg/kg and 1 mg/kg PO QD × 5D, certain dose-dependency

`[N-]=[N+]=N[C@]1(CO)O[C@@H](n2ccc(N)nc2=O)[C@@H](F)[C@@H]1O` [Azvudine] was tested, and the “IR(%)” value (CT26 cells [1]; 0.25 mpk) was 57.5%, the “TGI(%)” value (CT26 cells [1]; 0.25 mpk) was 63% and the “IR(%)” value (CT26 cells [1]; 1 mpk) was 84.5%. The “TGI(%)” value (CT26 cells [1]; 1 mpk) was 94%, the “IR(%)” value (CT26 cells [2]; 0.25 mpk) was 9.4% and the “TGI(%)” value (CT26 cells [2]; 0.25 mpk) was 13%. For the same compound, the “IR(%)” value (CT26 cells [2]; 1 mpk) was 49.2%, the “TGI(%)” value (CT26 cells [2]; 1 mpk) was 53% and the “infiltration of immune cells in the tumor” value ([3]; 0.25 mg/kg and 1 mg/kg PO QD × 5D, vs control group) was “increased”. The “infiltration of CD8+T cells in the tumor” value [3, 6] was “increase”, the “infiltration of NK cells in the tumor” value [3, 6] was “increase” and the “other cell subsets after administration” value ([3]; 0.25 and 1 mg/kg, compared with the control group) was “no significant change”. The “expression level of CD69 in T, CD4+ T, and CD8+ T cells” value [3, 7] was “no significant difference”, the “expression level of Ki67 in T, CD4+ T, and CD8+ T cells” value [3, 7] was “no significant difference” and the “proportion of M-MDSC cells” value [3, 8] was “significant reduction”. For the same compound, the “proportion of PMN-MDSC cells” value [3, 8] was “significant reduction”, the “proportion of myeloid cells” value [3, 8] was “significantly reduced” and the “ratio of CD4Teff/Treg” value [3, 8] was “significantly increased”. The “ratio of CD8T/Treg” value [3, 8] was “significantly increased”, the “CD8T/Treg and CD4Teff/Treg ratios and proportion of myeloid, M-MDSC, PMN-MDSC cells” value ([3]; low-dose group (0.25 mg/kg PO QD × 5D), compared with high-dose group) was “same trend” and the “release of MCP-1” value ([4]; serum samples, 0.25 mg/kg PO QD × 5D, 2 h after last administration) was “significantly reduced”. The “release of IL8” value ([4]; serum samples, 0.25 mg/kg and 1 mg/kg PO QD × 5D) was “significantly reduced”, the other cytokines ([4]; serum samples, 0.25 mg/kg and 1 mg/kg) was “no significant change” and the “release of IFN-β” value [4, 9] was “decreased”. For the same compound, the “release of IFNγ” value [4, 9] was “increased”, the “release of TNFα” value [4, 9] was “increased” and the “Tumor weight (mg) (On the 17th day)” value ([5]; Azvudine 0.25 mg/kg) was 848 ± 210 mg. The “Tumor volume (mm^3) on the 17th day” value ([5]; Azvudine 0.25 mg/kg p.o. QD × 18 days) was 768 ± 74 mm^3, the “Tumor volume (mm^3) on the 17th day” value ([5]; Azvudine 0.25 mg/kg p.o. QD × 18 days, listed as azvudine) was 768 mm^3 and the “T/C (%)” value ([5]; Azvudine 0.25 mg/kg p.o.) was 39.18%. The “TGI(%)” value ([5]; Azvudine 0.25 mg/kg p.o.) was 63.26%, the “T/Cweight (%)” value ([5]; Azvudine 0.25 mg/kg) was 42.52% and the “Tumor weight (mg) (On the 17th day)” value ([5]; Azvudine 0.5 mg/kg) was 386 ± 256 mg. The “Tumor volume (mm^3) on the 17th day” value ([5]; Azvudine 0.5 mg/kg p.o. QD × 18 days) was 347 ± 77 mm^3, the “Tumor volume (mm^3) on the 17th day” value ([5]; Azvudine 0.5 mg/kg p.o. QD × 18 days, listed as azvudine) was 347 mm^3 and the “T/C (%)” value ([5]; Azvudine 0.5 mg/kg p.o.) was 17.63%. For the same compound, the “TGI(%)” value ([5]; Azvudine 0.5 mg/kg p.o.) was 84.85%, the “T/Cweight (%)” value ([5]; Azvudine 0.5 mg/kg) was 19.37% and the “IR(%)” value (B-cell lymphoma A20; Azvudine single drug, 1 mpk) was 70.8%. For the same compound, the “TGI(%)” value (B-cell lymphoma A20; Azvudine single drug, 1 mpk) was 70%, the “inhibitory activity on the B-cell lymphoma A20 tumor-bearing mice” value (B-cell lymphoma A20; administered alone) was “certain inhibitory activity” and the TGI (B-cell lymphoma A20; azvudine 2 mg/kg) was 88%.
